The results in this text go back to ChEMBL document CHEMBL1201862, “PubChem BioAssay data set” (2004).

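Values below derive from 48-hour exposures of cells grown in 96-well plates, with endpoints linearly interpolated between the two concentrations bracketing the appropriate inhibition level. GI50: concentration for 50% inhibition of growth.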 Active and inactive are the calls of the source. Cut-off read from the data, not from the text of the source: active = GI50 up to about 1.1 µM and inactive = higher.

Test systems include COLO 205; HCC 2998; HCT-15; Hs-578T; IGROV-1; M14; MDA-MB-231; MDA-N; Malme-3M; NCI-H226; PC-3; RPMI-8226; SK-OV-3; SNB-19; SR; SW-620; TK-10; UACC-62; UO-31.
Holding throughout (test): NCI-60 cell line screen, 48 h

For the molecule `CC1=NOC(=O)/C1=C/c1ccc2c(c1)OCO2`, the GI50 is 17.7 µM (inactive) in the test on COLO 205; 28.9 µM (inactive) in the test on HCC 2998; 20.8 µM in the test with HCT-15; 39.5 µM (inactive) in the test with Hs-578T; 25.2 µM (inactive) in the test on IGROV-1; 35.3 µM (inactive) in the test with M14. Also, the GI50 in the test on MDA-MB-231 was 24.5 µM (inactive); in the test on MDA-N, 32.3 µM (inactive); with Malme-3M, 43.6 µM (inactive); in the test with NCI-H226 it was 21.6 µM (inactive); in the test with PC-3, 21 µM (inactive); in the test with RPMI-8226 it was 21.8 µM (inactive). For the same molecule, the GI50 in the test with SK-OV-3 is > 100 µM (inactive); in the test with SNB-19, 30.7 µM (inactive); with SR, 15.9 µM (inactive); in the test on SW-620 it was 21.1 µM (inactive); in the test with TK-10, 39.2 µM (inactive); in the test on UACC-62 it was 21.5 µM (inactive). In the test with UO-31, the GI50 was 21.1 µM (inactive).
Take `CN(NC(=O)c1ccco1)C1=NCCN1`: the GI50 in the test with COLO 205 was > 100 µM (inactive); in the test with HCC 2998 it was > 100 µM (inactive); in the test with HCT-15, over 100 µM; in the test with Hs-578T, > 100 µM (inactive); in the test on IGROV-1 it was > 100 µM (inactive); in the test with M14, > 100 µM (inactive). Besides, the GI50 in the test with MDA-MB-231, in the test with MDA-N, in the test with Malme-3M, in the test on NCI-H226, in the test with PC-3 and with RPMI-8226 was > 100 µM (inactive) in each case. Besides, the GI50 in the test with SK-OV-3, in the test on SNB-19, with SR, with SW-620, in the test on TK-10 and in the test with UACC-62 was > 100 µM (inactive) in each case. Moreover, in the test on UO-31, the GI50 was > 100 µM (inactive).
Take `CC1(C)CC2(C)CC1CC2O` (centres undefined): the GI50 is > 100 µM (inactive) in the test on COLO 205; > 100 µM (inactive) in the test on HCC 2998; over 100 µM in the test with HCT-15; > 100 µM (inactive) with Hs-578T; > 100 µM (inactive) in the test with IGROV-1; > 100 µM (inactive) with M14. The GI50 with MDA-MB-231, in the test on MDA-N, with Malme-3M, with NCI-H226, in the test on PC-3 and in the test on RPMI-8226 was > 100 µM (inactive) in each case. In addition, the GI50 in the test on SK-OV-3, with SNB-19, with SR, with SW-620, in the test on TK-10 and in the test on UACC-62 was > 100 µM (inactive) in each case. Further, in the test on UO-31, the GI50 is > 100 µM (inactive).
In the case of `Cc1ccc(S(=O)(=O)NNC(=O)Nc2cccc(C(F)(F)F)c2)cc1`, the GI50 was > 100 µM (inactive) with COLO 205; > 100 µM (inactive) in the test on HCC 2998; 89.1 µM in the test on HCT-15; > 100 µM (inactive) with Hs-578T; > 100 µM (inactive) in the test on IGROV-1; > 100 µM (inactive) in the test on M14. The GI50 with MDA-MB-231 is > 100 µM (inactive); with MDA-N, > 100 µM (inactive); in the test with Malme-3M it was > 100 µM (inactive); with NCI-H226, 44.7 µM (inactive); with PC-3 it was 36.4 µM (inactive); with RPMI-8226, > 100 µM (inactive). The GI50 in the test on SK-OV-3, in the test with SNB-19, with SR, with SW-620, with TK-10 and in the test with UACC-62 was > 100 µM (inactive) each time. The GI50 with UO-31 was 99.1 µM (inactive).
On to `COC(=O)c1cc(C#N)[nH]c1-c1cc(Br)cs1`, for which the GI50 is 14.3 µM (inactive) in the test on COLO 205; > 41.7 µM (inactive) in the test with HCC 2998; 15.1 µM with HCT-15; 14.5 µM (inactive) with Hs-578T; 13.4 µM (inactive) in the test with IGROV-1; 14.3 µM (inactive) with M14. In addition, the GI50 in the test with MDA-MB-231 is 20.2 µM (inactive); in the test with MDA-N, 15.4 µM (inactive); in the test with Malme-3M, 10.8 µM (inactive); in the test with NCI-H226, 10.9 µM (inactive); in the test on PC-3, 12.2 µM (inactive); in the test with RPMI-8226, 7.55 µM (inactive). Moreover, the GI50 was 13.4 µM (inactive) with SK-OV-3; 15 µM (inactive) with SNB-19; 24.9 µM (inactive) with SR; 17.7 µM (inactive) in the test with SW-620; 20.3 µM (inactive) in the test on TK-10; 15.8 µM (inactive) in the test with UACC-62. Besides, the GI50 in the test with UO-31 was 10 µM (inactive).
As to `COc1cc(C)c2c(c1C=O)Oc1c(c(C)c(O)c3c1C(O)OC3=O)OC2=O` (centres undefined) [STICTIC ACID], the GI50 in the test on COLO 205 is 28.3 µM (inactive); with HCC 2998 it was 20.2 µM (inactive); in the test with HCT-15, 17.6 µM; in the test with Hs-578T, 36.8 µM (inactive); in the test with IGROV-1 it was 23.1 µM (inactive); in the test with M14 it was 37.4 µM (inactive). The GI50 in the test on MDA-MB-231 was 23.3 µM (inactive); in the test with MDA-N, 17.5 µM (inactive); with Malme-3M, 20.7 µM (inactive); in the test with NCI-H226, 37.6 µM (inactive); in the test on PC-3, 34.4 µM (inactive); in the test with RPMI-8226, 16 µM (inactive). Further, the GI50 in the test on SK-OV-3 was 49.5 µM (inactive); with SNB-19, 14.5 µM (inactive); in the test on SR, 16 µM (inactive); in the test on SW-620, 57.9 µM (inactive); in the test with TK-10 it was > 100 µM (inactive); in the test on UACC-62, 25.6 µM (inactive). Besides, the GI50 with UO-31 was 29.1 µM (inactive).
As for `CC(=O)NNc1nc(C)c(C(/C=C/c2ccc(NC(C)=O)cc2)=N/NS(=O)(=O)c2ccc(C)cc2)s1`, the GI50 in the test on COLO 205 was > 100 µM (inactive); in the test with HCC 2998, > 100 µM (inactive); in the test on HCT-15, over 100 µM; in the test with Hs-578T, > 100 µM (inactive); with IGROV-1, > 100 µM (inactive); in the test with M14, > 100 µM (inactive). In addition, the GI50 in the test on MDA-MB-231, in the test with MDA-N, in the test with Malme-3M, in the test with NCI-H226, in the test with PC-3 and in the test on RPMI-8226 was > 100 µM (inactive) throughout. The GI50 in the test on SK-OV-3, with SNB-19, with SR, in the test on SW-620, with TK-10 and with UACC-62 was > 100 µM (inactive) each time. Further, the GI50 in the test with UO-31 is > 100 µM (inactive).
In the case of `O=C1Nc2ccccc2/C1=N/Nc1ccc([N+](=O)[O-])cc1`, the GI50 with COLO 205 is 93.5 µM (inactive); in the test with HCC 2998, 70.5 µM (inactive); in the test with HCT-15, 30.3 µM; in the test with Hs-578T it was 9.06 µM (inactive); with IGROV-1, 14.6 µM (inactive); in the test with M14, 30.8 µM (inactive). The GI50 with MDA-MB-231 is 24.8 µM (inactive); in the test on MDA-N it was 68.5 µM (inactive); in the test on Malme-3M, 17.4 µM (inactive); in the test with NCI-H226 it was 19.1 µM (inactive); in the test with PC-3, 27.4 µM (inactive); with RPMI-8226, 24.8 µM (inactive). Besides, the GI50 in the test with SK-OV-3 is 24.2 µM (inactive); in the test with SNB-19, 32.8 µM (inactive); in the test on SR, 1.46 µM (inactive); in the test on SW-620, 33.5 µM (inactive); in the test with TK-10, 24 µM (inactive); with UACC-62, 28.8 µM (inactive). In addition, the GI50 in the test on UO-31 is 13.3 µM (inactive).
Consider `Cc1cnc2nc(-c3ccc(Cl)cc3)cc(O)c2c1`, for which the GI50 is 4.31 µM (inactive) in the test with COLO 205; 11.4 µM (inactive) in the test with HCC 2998; 2.07 µM in the test with HCT-15; 6.7 µM (inactive) with Hs-578T; 5.66 µM (inactive) in the test with IGROV-1; 5.81 µM (inactive) in the test on M14. Besides, the GI50 was 5.27 µM (inactive) in the test with MDA-MB-231; 0.959 µM (active) in the test on MDA-N; 8.61 µM (inactive) with Malme-3M; 13.2 µM (inactive) in the test with NCI-H226; 2.12 µM (inactive) with PC-3; 3.88 µM (inactive) in the test on RPMI-8226. Besides, the GI50 with SK-OV-3 is 18.4 µM (inactive); with SNB-19, 5.35 µM (inactive); in the test with SR, 0.598 µM (active); in the test on SW-620 it was 4.06 µM (inactive); in the test on TK-10, 43.2 µM (inactive); with UACC-62, 5.5 µM (inactive). In addition, the GI50 with UO-31 was 8.59 µM (inactive).
As to `Cn1nnc2c(C(N)=S)ncn2c1=O`, the GI50 in the test with COLO 205 was > 100 µM (inactive); in the test with HCC 2998, > 100 µM (inactive); in the test with HCT-15 it was over 100 µM; in the test with Hs-578T, > 100 µM (inactive); with IGROV-1, > 100 µM (inactive); in the test with M14, > 100 µM (inactive). The GI50 in the test on MDA-MB-231, in the test on MDA-N, with Malme-3M, in the test on NCI-H226, in the test on PC-3 and with RPMI-8226 was > 100 µM (inactive) each time. Also, the GI50 in the test with SK-OV-3, in the test with SNB-19, in the test on SR, in the test with SW-620, with TK-10 and in the test with UACC-62 was > 100 µM (inactive) each time. Moreover, the GI50 with UO-31 was > 100 µM (inactive).
As to `CCOC(=O)/C=C/C1OC(C)(C)OC1/C=C/C(=O)OCC` (centres undefined), the GI50 in the test on COLO 205 was 30.6 µM (inactive); with HCC 2998 it was 23.2 µM (inactive); in the test on HCT-15, 23.4 µM; with Hs-578T, 37.8 µM (inactive); in the test with IGROV-1, 31.3 µM (inactive); with M14, 37.7 µM (inactive). Moreover, the GI50 in the test with MDA-MB-231 was 39.9 µM (inactive); in the test with MDA-N, 35.1 µM (inactive); with Malme-3M it was 39.8 µM (inactive); with NCI-H226 it was > 100 µM (inactive); in the test on PC-3, 44.9 µM (inactive); in the test with RPMI-8226 it was 24.8 µM (inactive). Also, the GI50 with SK-OV-3 was > 100 µM (inactive); with SNB-19, 33.9 µM (inactive); in the test with SR, 15.1 µM (inactive); in the test on SW-620 it was 19.7 µM (inactive); in the test with TK-10, 39.3 µM (inactive); in the test with UACC-62, 39.9 µM (inactive). Moreover, in the test on UO-31, the GI50 was > 100 µM (inactive).
